Where “and” joins values, the source holds several entries; their conditions need not be identical. Identical values can stand only once.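 1) Cells in 96-well plates. 2) Compound, 48 h, 5 concentrations. 3) Linear interpolation between surrounding doses. 4) Unreached endpoint = highest concentration. At the GI50, growth is halved. TGI is the concentration that stops growth completely.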
Legend:
Assay in all cases: DTP human tumour cell line panel, 48 h
786-0 renal = system: 786-0 renal
CCRF-CEM leukemia = system: CCRF-CEM leukemia
DU-145 prostate = system: DU-145 prostate
EKVX NSCLC = system: EKVX NSCLC
NCI-H460 lung = system: NCI-H460 lung
SK-MEL-2 melanoma = system: SK-MEL-2 melanoma
SR leukemia = system: SR leukemia
T-47D breast = system: T-47D breast
UO-31 renal = system: UO-31 renal
RXF 393 renal = system: RXF 393 renal

Row | Compound | GI50 (786-0 renal) | TGI (786-0 renal) | GI50 (CCRF-CEM leukemia) | TGI (CCRF-CEM leukemia) | GI50 (DU-145 prostate) | TGI (DU-145 prostate) | GI50 (EKVX NSCLC) | TGI (EKVX NSCLC) | GI50 (NCI-H460 lung) | TGI (NCI-H460 lung) | GI50 (SK-MEL-2 melanoma) | TGI (SK-MEL-2 melanoma) | GI50 (SR leukemia) | TGI (SR leukemia) | GI50 (T-47D breast) | TGI (T-47D breast) | GI50 (UO-31 renal) | TGI (UO-31 renal) | GI50 (RXF 393 renal) | TGI (RXF 393 renal)
1 | COc1cc2c3c(n(CCCCOC(=O)C(Cl)(Cl)Cl)c(=O)c2cc1OC)-c1cc2c(cc1C3=O)OCO2 | 17.2 µM | 41.3 µM | 10.5 µM | > 100 µM | 20.4 µM | > 100 µM | > 100 µM | > 100 µM | 2.41 µM | > 100 µM | > 100 µM | > 100 µM | 1.14 µM | 15 µM | > 100 µM | > 100 µM | 14.1 µM | > 100 µM |  | 
2 | CON(C)C(=O)N1N=C(c2cc(F)ccc2F)SC1(CCCN)c1ccccc1 (configuration not stated) | 0.0574 µM and < 0.01 µM | 18.1 µM and 18.5 µM | 0.0115 µM and < 0.01 µM | 22.4 µM and 21.6 µM | 0.0336 µM and < 0.01 µM | 11.8 µM and 11.3 µM |  |  | < 0.01 µM | 12 µM and 11.8 µM | < 0.01 µM | 0.561 µM | < 0.01 µM | 12.4 µM and 12.6 µM | 0.0279 µM and < 0.01 µM | 18.7 µM and 18.2 µM | 3.37 µM and 2.21 µM | 21.8 µM and 20.5 µM | < 0.01 µM | 0.756 µM
3 | O=C(/C=C\n1cnc(-c2cc(C(F)(F)F)cc(C(F)(F)F)c2)n1)NNc1cnccn1 | 0.0781 µM | 13.9 µM | 0.106 µM | > 100 µM | 0.271 µM | 12.6 µM | 0.0853 µM | 14.5 µM | 0.037 µM | 3.14 µM | 0.0729 µM | 2.84 µM | 0.0362 µM | > 100 µM | 0.143 µM | 15.7 µM | 0.12 µM | 12.8 µM | 0.028 µM | 0.225 µM
4 | CCCCCN(CCCCC)CC(O)c1ccc(Cl)c2ccccc12 (configuration not stated) | 11.7 µM | 24.8 µM | 10.5 µM | 33.1 µM | 12.1 µM | 30.6 µM | 10.8 µM | 30.4 µM | 3.72 µM | 19.1 µM | 17.4 µM | 38.2 µM | 4.11 µM | 14.7 µM | 4.93 µM | 19.4 µM | 5.16 µM | 20.6 µM | 2.13 µM | 8 µM
5 | O=C1OC(c2ccco2)=N/C1=C\c1cccc([N+](=O)[O-])c1 |  | > 100 µM |  | > 100 µM |  | > 100 µM |  | > 100 µM |  | > 100 µM |  | > 100 µM |  | > 100 µM |  | > 100 µM |  |  |  | 
6 | COc1ccc2nc3cc(Cl)ccc3c(NCCN)c2c1 | 1.63 µM | 3.05 µM | 1.42 µM | 5.39 µM | 1.53 µM | 2.92 µM |  |  |  |  | 14.5 µM | 31.2 µM | 1.44 µM | 5.4 µM | 1.83 µM | 3.59 µM | 1.5 µM | 2.95 µM |  | 
7 | Cc1ccc2[nH]c(C(=O)NN3C(=O)C(C)SC34CCCC(C)C4)c(-c3ccccc3)c2c1 (configuration not stated) | 58.3 µM | > 100 µM | 74.1 µM | > 100 µM | > 100 µM | > 100 µM | > 100 µM | > 100 µM | 83.3 µM | > 100 µM | > 100 µM | > 100 µM |  |  | > 100 µM | > 100 µM | > 100 µM | > 100 µM | 17.1 µM | 84.7 µM
8 | O=c1[nH]c(=O)n(C2OC(CO)C(O)C(O)C2O)cc1F (configuration not stated) |  | > 100 µM |  | > 100 µM |  | > 100 µM |  | > 100 µM |  | > 100 µM |  | > 100 µM |  | > 100 µM |  | > 100 µM |  | > 100 µM |  | > 100 µM
9 | COc1cc2c(c(OC)c1OC)-c1c(cc3c(c1OC)OCO3)C1OC2C(C)C1C (configuration not stated) (tested in a mixture with another compound) |  | > 100 µM |  | > 100 µM |  | > 100 µM |  | > 100 µM |  | > 100 µM |  | > 100 µM |  | > 100 µM |  | 80.2 µM |  | > 100 µM |  | > 100 µM
10 | COC(=O)[C@H](Cc1c[nH]c2ccccc12)NC(=O)[C@@H](OC)[C@@H]1Cc2cc3cc(OC4CC(OC5CC(O)C(O)C(C)O5)C(O)C(C)O4)c(C)c(O)c3c(O)c2C(=O)[C@H]1OC1CC(OC2CC(OC3CC(C)(O)C(O)C(C)O3)C(O)C(C)O2)C(O)C(C)O1 (some centres not stated) | 0.0158 µM | > 16.5 µM | 0.0064 µM | > 6.28 µM | 0.00713 µM | > 16.5 µM | 0.0125 µM | 3 µM | 0.00611 µM | > 5.24 µM | 0.0049 µM | 0.0145 µM | 0.00376 µM | > 8.99 µM | 0.0075 µM | > 9.76 µM | 0.215 µM | 1.18 µM | 0.00833 µM | 0.0243 µM
11 | O=C(/C(=C/c1cccc([N+](=O)[O-])c1)c1ccccc1)c1ccccc1 | 4.8 µM | 18.3 µM | 2.17 µM | 27.8 µM | 4.22 µM | 14.7 µM |  |  | 3.32 µM | 12.6 µM |  |  | 2.7 µM | > 100 µM | 3.42 µM | 15.5 µM | 2.21 µM | 5.85 µM | 3.39 µM | 9.06 µM
12 | COc1ccc(-c2nnc(COc3ccc(NC(=O)Nc4ccc(Cl)c(C(F)(F)F)c4)cc3F)o2)cc1 | 3.24 µM | 12 µM | 3.06 µM | 40 µM | 3.1 µM | 11.1 µM |  |  | 2.26 µM | 5.56 µM | 3.61 µM | 9.87 µM | 1.39 µM | 4.09 µM | 3.02 µM | 14.5 µM | 2.88 µM | 16.6 µM |  | 
13 | Cc1ccc2c(c1)CN(C(=O)CCC(=O)OCc1ccccc1)c1ccc(C)cc1CN2C(=O)CCC(=O)OCc1ccccc1 |  | > 100 µM |  | > 100 µM |  | > 100 µM |  | > 100 µM |  | > 100 µM |  | > 100 µM |  | > 100 µM |  | > 100 µM |  |  |  | > 100 µM
14 | COc1ccccc1Cn1cc2c(c1-c1ccccc1)CCc1cnoc1-2 | 4.04 µM | > 100 µM | 2.85 µM | > 100 µM | 2.76 µM | 12.1 µM | 2.76 µM | > 100 µM | 2.65 µM | 18.1 µM | 1.83 µM | 9.97 µM | 0.491 µM | 56.5 µM | 4.49 µM | > 100 µM | 3.46 µM | 78.6 µM | 2.57 µM | > 100 µM

— PubChem BioAssay (NCI)
